Data on one compound can be found in PMC7698842, “Lanostane Triterpenoid Metabolites from a Penares sp. Marine Sponge Protect Neuro-2a Cells against Paraquat Neurotoxicity” (Molecules, 2020).

Series [1] concerns histamine release induced by anti-IgE. The following applies: cited from earlier work.
The subject of series [2] is mitochondrial membrane potential in PQ-treated Neuro-2a cells. Put plainly: Mitochondrial membrane potential detection (TMRM) in PQ-treated Neuro-2a cells. The following applies: compound 10 μM, PQ 500 µM 1 h. The series is classed as cell-based, mouse. The procedure: The cells (1 × 10^4 cells/well of a 96-well plate) were incubated with compound solutions (1 and 10 µM) during 1 h. Then, PQ was added to cell suspension to a resulting concentration of 500 µM for incubation during 1 h. Cells incubated without PQ and compounds and with PQ alone were used as positive and negative controls, respectively. The tetramethylrhodamine methyl (TMRM) (Sigma-Aldrich, St. Louis, MO, USA) solution at 500 nM was added in each well and cells were incubated for 30 min at 37 °C. The intensity of fluorescence was measured with a PHERAstar FS plate reader (BMG Labtech, Ortenberg, Germany) at λex = 540 nm and λem = 590 nm. The data were processed by MARS Data Analysis v. 3.01R2 (BMG Labtech, Ortenberg, Germany). The results were presented as percent of positive control data.

Series [3] concerns PQ-treated Neuro-2a cells. Put plainly: Neurite outgrowth estimation in PQ-treated Neuro-2a cells. The series is classed as cell-based, mouse. The procedure: Neurite outgrowth was studied as described by Li et al.. Neuro-2a cells were seeded in 6-well plates (1.6 × 10^5 cells/well) in DMEM medium containing 10% fetal bovine serum (Biolot, St. Peterburg, Russia) and 1% penicillin/streptomycin (Invitrogen, Carlsbad, CA, USA). The next day, this growth media was changed with serum-free DMEM media containing 1% penicillin/streptomycin, and cells were treated with studied compounds at a concentration of 10 µM for 1 h. After that, PQ (500 µM) was added and cells were incubated during 24 h. Cells incubated without PQ and compounds and with PQ alone were used as positive and negative controls, respectively.
For each well, approximately 10 images were acquired randomly by scanning the wells from left to right and top to bottom using the AxioImager A1 microscope (CarlZeiss, Oberkochen, Germany). A total of ten random fields (near 350 cells in each) for each experimental group were scored for neurite outgrowth. The number of neurite-bearing cells and lengths of the individual neurites for each cell were measured using the AxioVision 4.7.1 software (CarlZeiss, Oberkochen, Germany). Length was defined as the straight-line distance from the tip of the neurite to the junction between the cell body and neurite base. In the case of branched neurites, the length of the longest branch was measured from the tip of the neurite to the cell body. In each experimental group, the average length of neurites was calculated, as well as the average number of neurites per one cell.

Series [4] relates to ROS level in PQ-treated Neuro-2a cells. Put plainly: ROS level analysis in PQ-treated Neuro-2a cells (H2DCFDA). It counts as cell-based, mouse. The following applies: tested at 1 and 10 μM, PQ 500 µM 1 h. On the procedure:
The cells (1 × 10^4 cells/well of a 96-well plate) were incubated with compound solutions (1 and 10 µM) during 1 h. Then, PQ was added to cell suspension to a resulting concentration of 500 µM for incubation during 1 h. Cells incubated without PQ and compounds and with PQ alone were used as positive and negative controls, respectively. The 20 µL of 2,7-dichlorodihydrofluorescein diacetate solution (H2DCFDA, Molecular Probes, Eugene, OR, USA) was added to each well (10 µM, final concentration) and the plate was incubated for an additional 10 min at 37 °C. The intensity of dichlorofluorescin fluorescence was measured with a PHERAstar FS plate reader (BMG Labtech, Ortenberg, Germany) at λex = 485 nm and λem = 518 nm. The data were processed by MARS Data Analysis v. 3.01R2 (BMG Labtech, Ortenberg, Germany). The results were presented as percent of positive control data.

In series [5] the test system is Hsp70 level in Neuro-2a cells. The experiment in a line: Hsp70 level analysis by Western blot in Neuro-2a cells. It counts as cell-based, mouse. To be noted: compound 10 µM 1 h, then PQ 500 µM 24 h. The procedure:
The Hsp70 expression was detected by Western blot analysis. Cell suspensions (1.6 × 10^5 cells/well of a 6-well plate) were seeded and treated with studied compounds at a concentration of 10 µM for 1 h. After that, PQ (500 µM) was added and cells were incubated during 24 h. Cells incubated without PQ and compounds and with PQ alone were used as positive and negative controls, respectively. Cells were washed by cold PBS (BioloT, Russia) twice and lysed by radioimmunoprecipitation assay (RIPA) buffer (BioloT, St. Peterburg, Russia). The amount of proteins was measured by the Bradford method and equal samples (25 µg) were prepared using sample buffer. Proteins were separated with sodium dodecyl sulphate (SDS) electrophoresis in 10% polyacrylamide gel. The electrophoretically separated proteins were transferred onto the polyvinylidene difluoride (PVDF) membrane Whatman (Sigma-Aldrich, St. Louis, MO, USA) using a semi-dry transfer apparatus (Helicon, Moscow, Russia). […] The peroxidase reaction was visualized by an enhanced chemiluminescence (ECL) kit according to the instructions of the manufacturer (Sigma-Aldrich, St. Louis, MO, USA) using the VersaDoc Imaging System (Bio-Rad, Hercules, CA, USA).
Background: In western blotting, separated proteins are transferred to a membrane and probed.

Series [6] deals with PQ-treated Neuro-2a cells. The experiment in a line: Propidium iodide straining of PQ-treated Neuro-2a cells (membrane permeability). It counts as cell-based, mouse. To be noted: PQ-treated cells, 24 h. On the procedure: The cells (1 × 10^4 cells/well) were seeded in black 96-well plates before testing. After incubation of the cells with compounds and PQ during 24 h, PI solution (10 μg/mL) was added to each well and the plate was incubated in the dark at 37 °C for 10 min. Cells were washed with phosphate buffer saline (PBS) (BioloT, St.Peterburg, Russia) and fluorescence was measured with a Fluoroskan Ascent plate reader (Thermo Labsystems, Helsinki, Finland) at […]. All manipulations with fluorescent probes were carried out in a darkened room. The results were presented as percent of positive control data.

The subject of a further series is Neuro-2a cells. The experiment in a line: Cytotoxicity toward Neuro-2a cells (MTT assay). To be noted: Neuro-2a cells, 100 μM, MTT assay. It counts as cell-based, mouse. The procedure:
(§1) The cells of mouse neuroblastoma cell line Neuro-2a (ATCC® CCL-131™; American Type Culture Collection, Manassas, VA, USA) were cultured in Dulbecco’s modified Eagle’s medium (DMEM) containing 10% fetal bovine serum (Biolot, St. Petersburg, Russia) and 1% penicillin/streptomycin (Biolot, St. Petersburg, Russia) at 37 °C in a humidified atmosphere with 5% (v/v) CO2. Initially, cells were incubated in cultural flasks until sub-confluent (~80%). For testing, Neuro-2a cells were seeded in 96- or 6-well plates and experiments were started after 24 h.
(§2) The cells (1 × 10^4 cells/well of a 96-well plate) were incubated with different concentrations of studied compounds during 24 h. After that, cell viability was determined by the MTT (3-(4,5-dimethylthiazol-2-yl)-2,5-diphenyltetrazolium bromide) method according to the manufacturer’s instructions (Sigma-Aldrich, St. Louis, MO, USA). Absorbance of the converted formazan was measured using a Multiskan FC microplate photometer (Thermo Scientific, Waltham, MA, USA) at λ = 570 nm. The results were presented as percent of control data, and concentration of cell viability inhibition on 50% (IC50) was calculated.

The nature of series [7]: Cytotoxicity toward Neuro-2a cells (MTT assay). The following applies: mouse, Neuro-2a neuroblastoma cells, 24 h. It counts as cell-based, mouse. The procedure:
as §1, §2
For orientation: Formazan colour is commonly taken as a measure of viable cells.

Series [8] can be described thus: DPPH radical scavenging assay (cell-free). The following applies: 30 min, MeOH. The procedure:
The 2,2-diphenyl-1-picryl-hydrazyl-hydrate (DPPH) radical scavenging activity was tested as described previously. The compounds were dissolved in MeOH, and the solutions (120 µL) were dispensed into wells of a 96-well microplate. The DPPH (Sigma-Aldrich, Steinheim, Germany) was dissolved in MeOH at a concentration of 7.5 × 10^−3 M and the solution (30 µL) was added to each well. The concentrations of tested compounds in the mixtures were 10 and 100 µM. Ascorbic acid was used as a positive control. The mixtures were shaken and left for 30 min. The absorbance of the resulting solutions was measured at λ = 520 nm with a MultiscanFC plate reader (Thermo Scientific, Waltham, MA, USA). The concentration scavenging 50% of the DPPH radical (EC50) was calculated for each compound.
On the technique in general: Loss of DPPH colour is used to gauge radical scavenging.

[9] abbreviates: cells incubated with compound 10 µM and PQ 500 µM.
Setting [10] is: compound 10 µM 1 h, then PQ 500 µM 24 h.

What is called IC50 is the concentration needed to halve the response being measured. Low readings indicate greater potency, high ones weaker potency. What is called EC50 is the concentration at which the effect is half-maximal. On to `CC(=O)O[C@H]1CC[C@]2(C)C3=C(CC[C@H]2C1(C)C)[C@]1(C(=O)O)CC[C@H]([C@H](C)CCC=C(C)C)[C@@]1(C)CC3` [Compound 5, acetylpenasterol], for which the “inhibition of histamine release induced by anti-IgE” value in series [1] is recorded as “inhibitors of histamine release”. For the same compound, the “increase of intensity of TMRM fluorescence (PQ-induced mitochondrial dysfunction diminished)” value in series [2] amounted to 35%. In addition, in series [3] (setting [9]), the “proportion of neurites with a length of 0–4.99 µm in the total number” value is on record as 6.4% and the “proportion of neurites with a length of 10.00–14.99 µm in the total number” value is on record as 20.7%. In series [3] (setting [10]), the “increase in the average number of neurites per cell” value is reported as 20% and the “increase of neurites-bearing cell amount compared to PQ-treated control” value is 144%. Further, the “concentrations at which ROS content in PQ-treated cells was reduced” value in series [4] is “effective at concentrations of 1 and 10 μM”. In addition, in series [5], the “effect on Hsp70 level in PQ-treated cells” value is given as “raised it to the initial level”. For the same compound, the “decrease of fluorescence of PI-straining cells” value in series [6] (compound 1 μM pre-incubation) was found to be 20%. The “decrease of fluorescence of PI-straining cells” value in series [6] (compound 10 μM pre-incubation) is on record as 24%. In the series with Neuro-2a cells, this compound gave a death of cells of 45.6%. Also, in series [7] (Neuro-2a cell viability, 10 μM, read-out: Cytotoxicity (MTT Assay) % of Control at 10 μM), the activity at 24 h, 10 µM was determined as 97.9 ± 3.3%. In addition, the IC50 at 24 h in series [7] (Neuro-2a cells) was more than 100 µM. The EC50 in [8] is more than 100 µM.
